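A five-concentration, 48-hour dose response in 96-well plates underlies each endpoint, interpolated linearly between surrounding concentrations. TGI is the concentration that stops growth completely.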 Where a SMILES comes first, the peptide text is derived from it. The star is where a group is joined. Cbz = O=C(OCc1ccccc1)*; Boc = CC(C)(C)OC(=O)*; tBu = CC(C)(C)*
Experiments:
Test in all cases: NCI-60 cell line screen, 48 h
SN12C renal = tested on: SN12C renal
RPMI-8226 leukemia = tested on: RPMI-8226 leukemia
HL-60(TB) leukemia = tested on: HL-60(TB) leukemia
786-0 renal = tested on: 786-0 renal
SW-620 colon = tested on: SW-620 colon
HT29 colon = tested on: HT29 colon
NCI/ADR-RES ovarian = tested on: NCI/ADR-RES ovarian
SK-MEL-28 melanoma = tested on: SK-MEL-28 melanoma
A549 NSCLC = tested on: A549 NSCLC
K-562 leukemia = tested on: K-562 leukemia
HCT-15 colon = tested on: HCT-15 colon
DU-145 prostate = tested on: DU-145 prostate
SK-MEL-2 melanoma = tested on: SK-MEL-2 melanoma
RXF 393 renal = tested on: RXF 393 renal
ACHN renal = tested on: ACHN renal
OVCAR-5 ovarian = tested on: OVCAR-5 ovarian
MDA-MB-231 breast = tested on: MDA-MB-231 breast
KM12 colon = tested on: KM12 colon
EKVX NSCLC = tested on: EKVX NSCLC

SMILES	TGI (SN12C renal) [µM]	TGI (RPMI-8226 leukemia) [µM]	TGI (HL-60(TB) leukemia) [µM]	TGI (786-0 renal) [µM]	TGI (SW-620 colon) [µM]	TGI (HT29 colon) [µM]	TGI (NCI/ADR-RES ovarian) [µM]	TGI (SK-MEL-28 melanoma) [µM]	TGI (A549 NSCLC) [µM]	TGI (K-562 leukemia) [µM]	TGI (HCT-15 colon) [µM]	TGI (DU-145 prostate) [µM]	TGI (SK-MEL-2 melanoma) [µM]	TGI (RXF 393 renal) [µM]	TGI (ACHN renal) [µM]	TGI (OVCAR-5 ovarian) [µM]	TGI (MDA-MB-231 breast) [µM]	TGI (KM12 colon) [µM]	TGI (EKVX NSCLC) [µM]
COc1cc(O)c2c(c1)OCC(Cc1ccc(O)cc1)C2=O (stereo not drawn)	> 100	> 100	> 100	> 100	> 100	> 100	> 100	> 100	> 100	> 100	> 100	> 100	> 100	> 100	> 100	> 100	> 100	> 100	
Cc1cccc2c(N)c3cccc(C(=O)NCC[N+](C)(C)Cc4c([N+](=O)[O-])ncn4C)c3nc12	> 100	> 100	> 44.4	37.2	> 100	> 40.4	> 100	> 100	> 47.9	> 100	> 100	> 100	> 100	> 100	> 39.5	> 100	> 82.1	> 100	> 100
CN1C2CCC1CC(CCNC(c1ccccc1)c1ccccc1)C2 (stereo not drawn)	> 100	56.1	> 100	41.4	> 100	> 100	> 100	34.2	> 100	27.4	> 100	> 100	31.4	39.1	> 100	> 100	72.4	> 100	> 100
CC12CCC([C@H](C(O)C3CCCCC3)C1=O)C2(C)C (stereo partly drawn)	> 100	> 100	42.4	> 100	> 100		> 100			> 100	> 100	> 100	> 100	> 100	> 100	> 100	> 100	> 100	> 100
CC1ON2CCCC2[C@H]1C(=O)N1C2CC3CCC2(CS1(=O)=O)C3(C)C (stereo partly drawn)	> 100	> 100	> 100	> 100	> 100	> 100	> 100	> 100	> 100	> 100	> 100	> 100	> 100	> 100	> 100	> 100	> 100	> 100	> 100
O=C1O/C(=C(/Br)c2ccc(Cl)c(Cl)c2)c2ccccc21	> 10	> 10	> 10	> 10	> 10	> 10	> 10	> 10	> 10	> 10	> 10	> 10	> 10	> 10	> 10	> 10	> 10	> 10	> 10
CCOC(=O)C1(C(=O)OCC)C[C@H](C)[C@](C)(O)C1	> 100	> 100	> 100	> 100	> 100	> 100	> 100	> 100	> 100	> 100	> 100	> 100	> 100	> 100	> 100	> 100	> 100	> 100	> 100
NC(N)=N/N=C/c1c(-c2cccc([N+](=O)[O-])c2)nc2n1CCS2	58.5	> 100	45.6	> 100	37.7	32.7	> 100	41.5	41	> 100	> 100	36.4	34	36	44.2	> 100	44.5	68.5	54.5
Cc1cc(C)n(C2OC(CO)C(O)C(O)C2O)c(=S)c1C#N (stereo not drawn)	> 100	> 100	> 100	> 100	> 100	> 100	> 100	> 100	> 100		> 100	> 100	> 100	> 100	> 100	> 100	> 100	> 100	
Cc1ccc(/C=C2\CCC/C(=C\c3ccc(O)c(CN4CCCCC4)c3)C2=O)cc1	26.5	> 100	> 100	14.3	17.7	3.78	12	> 53.5	> 49.3	> 38.3	18.3	16.6	> 54.8	27.1	18.6	38.9	22.3	8.33	27.8
Cc1ccc(NC(=O)c2cccc(OP(=O)(O)Nc3ccc(C)cc3)c2)cc1	> 100	> 100	> 100	> 100	> 100	> 100	> 100	> 100	> 100	> 100	> 100	> 100	> 100	> 100	> 100	> 100	> 100	> 100	> 100
O=C1N[C@@H](c2c[nH]c3cc(Br)ccc23)C(=O)N[C@H]1c1c[nH]c2cc(Br)ccc12	> 100	> 100	> 100	> 100	> 100	> 100	> 100	> 100	> 100	> 100	> 100	> 100	> 100	> 100	> 100	> 100	80.2	> 100	> 100
COC(=O)C1C(=O)C=CN([C@H](C)c2ccccc2)[C@@H]1Cc1ccc(OC)c(OCc2ccccc2)c1I (stereo partly drawn)	28.8	> 100	79	34.4	> 100	26.7	42.9	> 100	71.9	> 100	27	42.6	40	25.2	70	92.7	46.7	52	> 100
CC(OC(C)(C)C)C(NC(=O)C(CCCCNC(=O)OC(C)(C)C)NC(=O)C(Cc1c[nH]c2ccccc12)NC(=O)C(Cc1ccccc1)NC(=O)OCc1ccccc1)C(=O)NC(Cc1ccccc1)C(=O)O (stereo not drawn) (Cbz-FWK(Boc)T(tBu)F-OH; configuration not given here)	62.6	> 100	> 100	> 100	> 100	> 100	> 100	> 100	> 100	> 100	> 100	> 100	92.8	> 100	> 100	> 100	> 100	> 100	> 100
COC/C=C\[C@]1(O)CCCC[C@@H]1CC(OC)OC		> 100	81.8	> 100	> 100	> 100	> 100	> 100	> 100	> 100	> 100	> 100	> 100	> 100	> 100	> 100	> 100	> 100	> 100
CC(C)(C)c1ccc(-c2nc3ccc(Cl)cc3c(=O)o2)cc1	> 100	54.1	42.4	> 100	> 100	63.8	67.1	57.2	53	67.8	49.5	92.4	44.2	87.1	61.7	80.9	18.6	19.2	70
NC(=S)Nc1ccc(S(=O)(=O)Nc2ccc(S(N)(=O)=O)cc2)cc1	> 100	> 100	> 100	> 100	> 100	> 100	> 100	> 100	> 100	> 100	> 100	> 100	> 100	> 100	> 100	> 100	> 100	> 100	> 100
Cc1ccc(NC(=S)N/N=C(/c2ccccc2)c2ccccn2)cc1	10.1	> 58.4	2.26	13.7	20.9	20.3	> 80.2	2.32	15.7	4.61	15.6	18.8	15.1	12.7	10.3	2.07	20.1	13.4	12.9
NNc1nncc2n[nH]nc12	> 100	> 100	> 100	> 100	> 100	> 100	> 100	> 100	> 100	> 100	> 100	> 100	> 100	> 100	> 100	> 100	> 100	> 100	> 100
CCn1c(SCC(=O)NNC(=S)Nc2ccc(C)cc2)nc2ccccc2c1=O	> 100	> 100	> 100	> 100	> 100	> 100	> 100	> 100	> 100	> 100	> 100	> 100	> 100	> 100	> 100	> 100	> 100	> 100	> 100
COc1ccc(N2C(=O)c3cc(C)cnc3S2(=O)=O)cc1	> 100	> 100	> 100	> 100	> 100	> 100	> 100	> 100	> 100	> 100	> 100	> 100	> 100	> 100	> 100	> 100	> 100	> 100	> 100
COC(=O)CCc1cc(O)c2c(c1)C(C(=O)OC)C(c1ccc(O)c(O)c1)O2 (stereo not drawn)	> 88.7	> 92.9	> 21.8	> 100	> 100	> 96.4	> 100	> 100	> 100	10.6	> 100	> 83	> 100	> 100	> 100	> 100	> 100	> 46.5	> 100
CNC(=O)N1CN(c2ccccc2)C2(CCN(CCCC3(c4ccc(F)cc4)OCCO3)CC2)C1=O	> 100	> 100	> 100	> 100	> 100	> 100	> 100	> 100	> 100	> 100	> 100	> 100	> 100	> 100	> 100	> 100	> 100	> 100	> 100
Cc1ccc(N=Nc2c(C)c(C#N)c(=S)n(C3OC(CO)C(O)C(O)C3O)c2C)cc1 (stereo not drawn)	94.2	> 100	> 100	83.8	38.8	> 100	> 100	44.7	> 100	> 100	> 100	> 100	89.7	93.6	> 100	> 100	60	> 100	

Source: PubChem BioAssay (NCI)
